Source: US11116847B2, “Methylene carbamate linkers for use with targeted-drug conjugates” (Seagen Inc., priority 2013, dated 2021)

Legend:
[1] = system: Type B-1 β-glucuronidase (bovine liver); test: Release of free drug or model drug from NAC-conjugates after glucuronidase activation of the Self-immolative Assembly Unit; type: biochemical; settings: NAC-conjugate corresponding to the named model drug-linker compound (N-acetyl cap replaced by maleimide Stretcher quenched with N-acetyl-cysteine)
Procedure: Release of free drug from the NAC-7.7 conjugate derived from the Drug-Linker Compound of Example 7 was evaluated in the following manner: An enzyme stock was prepared by dissolving Type B-1 β-glucuronidase (bovine liver, 1,644,000 units/g solid) in pH 5 100 mM sodium acetate buffer to a working concentration of 0.5 mg/mL. Five microliters of 8 mM drug-linker stock of compound 7.7 was added to 12.5 μL DMSO, 26.3 μL of phosphate-buffered saline, and 6.75 μL of 100 mM N-acetylcysteine. The quenched linker was then diluted with 0.45 mL enzyme stock. The enzymatic reaction was then incubated at 37 C, with multiple time points taken at 1, 10, 20, and 40 minutes. Each time point sample consisted of 20 μL reaction diluted in 5 volumes ice cold methanol and cooled to −20 C until all the samples were withdrawn. The samples were then centrifuged at 12,000 g for 5 minutes and 20 μL of supernatant was analyzed by UPLC-MS. After 20 minutes of enzyme digestion the drug-linker was completely consumed. By 40 minutes, the majority of the material was free drug, indicating effectively complete drug release from the linker system.
Releases of stand-in “free drugs” from NAC conjugates incorporating the Drug-Linker moieties from Example 8 were also studied. Those compounds were prepared by replacing the N-acetyl capping group with N-3-(propionoyl)-maleimide, which introduces a maleimide Stretcher Unit precursor, in the amino intermediates used for the preparation of model drug linker compounds 8.23-8.30. The maleimide moieties are then quenched with N-acetyl-cysteine as previously described for the preparation of NAC-7.7. The NAC-conjugates derived from the amino intermediates of Example 8 have the generalized structure of
[drawing 194] wherein T* is the oxygen or sulfur heteroatom from the hydroxyl or sulfhydryl functional group of the primary alcohol or thiol-containing compound or the oxygen heteroatom from the hydroxyl functional group of the secondary or tertiary alcohol-containing compound or from the phenolic-containing compound of Table 3.

[2] = In vitro stability of drug-linker / model drug-linker compounds to spontaneous hydrolysis of the methylene carbamate unit (LC/MS); type: physicochemical; settings: for Relative Degradation Half-life Observed by LC/MS: 0.1M PBS; for Relative Degradation Half-life Observed by LC/MS / drug-linker degradation: pH 7.4, at 37° C.; for stability to spontaneous hydrolysis when R is dimethylaminoethyl instead of ethyl / degradation / stability to spontaneous hydrolysis: 0.1 M phosphate buffered saline; for stability to spontaneous hydrolysis when R is dimethylaminoethyl instead of ethyl / degradation / stability to spontaneous hydrolysis / comparative hydrolytic stability: pH 7.4, 37° C.; for stability to spontaneous hydrolysis when R is dimethylaminoethyl instead of ethyl: 7 days, compared with 8.26; for degradation / stability to spontaneous hydrolysis: tested every 24 h for 7 days by LC/MS; for comparative hydrolytic stability: PBS, 8.26 compared with 6.4, 5.6 compared with model compound (8.23); for drug-linker degradation: after 14 da incubation in 0.1 M PBS
Procedure: General procedure for testing Drug-Linker stability: Final N-acetyl products of Example 8 were dissolved in 1 mL 0.1 M phosphate buffered saline, pH 7.4, in a vial at 37° C. LC/MS samples were prepared by adding 2 μL aliquots of incubated compound solution to 100 μL of MeOH in an HPLC vial. Each conjugate was tested every 24 h for 7 days.
For evaluation of in vitro stability of Compound 7.7 this Drug-Linker compound was converted to its N-acetylcysteine conjugate (NAC-7.7), which provide a model LDC with NAC serving as a surrogate for a targeting antibody Ligand Unit. For that purpose eight microliters of a 8 mM DMSO stock of Drug-Linker Compound was diluted in phosphate-buffered saline (0.39 mL). The maleimide moiety in each Drug-Linker Compound was then quenched with N-acetylcysteine (0.8 μL, 100 mM stock), and the material was stored in a 37° C. incubator. Aliquots were drawn at various time points out to 14 days and analyzed by UPLC-MS for drug-linker integrity.
Stability testing was conducted as in Example 9.

| SMILES | Time to 100% Release [1] | Relative Degradation Half-life Observed by LC/MS [2] | stability to spontaneous hydrolysis when R is dimethylaminoethyl instead of ethyl [2] | degradation / stability to spontaneous hydrolysis [2] | comparative hydrolytic stability [2] | drug-linker degradation [2] | half-life ([2]; phosphate buffered saline, 0.1 M PBS buffer, pH 7.4 at 37° C.) |
| --- | --- | --- | --- | --- | --- | --- | --- |
| CCN(COCCc1ccccc1)C(=O)OCc1ccc(O[C@@H]2O[C@H](C(=O)O)[C@@H](O)[C@H](O)[C@H]2O)c(NC(C)=O)c1 [Compound 8.25, (2S,3S,4S,5R,6S)-6-(2-acetamido-4-(((ethyl(phenethoxymethyl)carbamoyl)oxy)methyl)phenoxy)-3,4,5-trihydroxytetrahydro-2H-pyran-2-carboxylic acid] | 15 min | 170 h | same excellent stability | suitable stability |  |  |  |
| CCN(COC(C)Cc1ccccc1)C(=O)OCc1ccc(O[C@@H]2O[C@H](C(=O)O)[C@@H](O)[C@H](O)[C@H]2O)c(NC(C)=O)c1 (stereo partly drawn) [Compound 8.26, (2S,3S,4S,5R,6S)-6-(2-acetamido-4-(((ethyl(((-phenylpropan-2-yl)oxy)methyl)carbamoyl)oxy)methyl)phenoxy)-3,4,5-trihydroxytetrahydro-2H-pyran-2-carboxylic acid] | 45 min | None Observed |  | no signs of degradation | increase stability |  |  |
| CO[C@H]1C[C@@H]2CC[C@@H](C)[C@@](O)(O2)C(=O)C(=O)N2CCCC[C@H]2C(=O)O[C@H]([C@@H](C)C[C@H]2CC[C@@H](OCCOCNC(=O)OCc3ccc(NC(=O)[C@H](CCCNC(N)=O)NC(=O)[C@@H](NC(=O)CCN4C(=O)C=CC4=O)C(C)C)cc3)[C@H](OC)C2)CC(=O)[C@H](C)/C=C(\C)[C@@H](O)[C@@H](OC)C(=O)[C@H](C)C[C@H](C)/C=C/C=C/C=C/1C [Compound 5.6] |  | 170 h |  |  | even better hydrolytic stability | No indication of drug-linker degradation |  |
| CC(=O)Nc1cc(COC(=O)N(CCN(C)C)COC(C)(C)Cc2ccccc2)ccc1O[C@@H]1O[C@H](C(=O)O)[C@@H](O)[C@H](O)[C@H]1O [Compound 8.31, (2S,3S,4S,5R,6S)-6-(2-acetamido-4-((((2-(dimethylamino)ethyl)(((2-methyl-1-phenylpropan-2-yl)oxy)methyl)carbamoyl)oxy)methyl)phenoxy)-3,4,5-trihydroxytetrahydro-2H-pyran-2-carboxylic acid] | 15 min | None Observed |  |  |  |  |  |
| CC(=O)Nc1cc(COC(=O)N(CCN(C)C)COCCc2ccccc2)ccc1O[C@@H]1O[C@H](C(=O)O)[C@@H](O)[C@H](O)[C@H]1O [Compound 8.30, (2S,3S,4S,5R,6S)-6-(2-acetamido-4-((((2-(dimethylamino)ethyl)(phenethoxymethyl)carbamoyl)oxy)methyl)phenoxy)-3,4,5-trihydroxytetrahydro-2H-pyran-2-carboxylic acid] | 15 min | None Observed |  |  |  |  |  |
| C=CC[C@@H]1/C=C(\C)C[C@H](C)C[C@H](OC)[C@H]2O[C@@](O)(C(=O)C(=O)N3CCCC[C@H]3C(=O)O[C@H](/C(C)=C/C3CC[C@@H](OCNC(=O)OCc4ccc(NC(=O)[C@H](CCCNC(N)=O)NC(=O)[C@@H](NC(=O)CCN5C(=O)C=CC5=O)C(C)C)cc4)[C@H](OC)C3)[C@H](C)[C@@H](O)CC1=O)[C@H](C)C[C@@H]2OC (stereo partly shown) [Compound 6.4] |  | None Observed |  |  | acceptable stability | No indication of drug-linker degradation | 10 h |
| CCN(COc1cccc2ccccc12)C(=O)OCc1ccc(O[C@@H]2O[C@H](C(=O)O)[C@@H](O)[C@H](O)[C@H]2O)c(NC(C)=O)c1 [Compound 8.28, (2S,3S,4S,5R,6S)-6-(2-acetamido-4-(((ethyl((naphthalen-1-yloxy)methyl)carbamoyl)oxy)methyl)phenoxy)-3,4,5-trihydroxytetrahydro-2H-pyran-2-carboxylic acid] | 25 min | None Observed |  | excellent stability |  |  |  |
| CCN(CO[C@H]1C2[C@H]3O[C@H]3[C@H]3C4=C(CC[C@]3(C)[C@@]23O[C@H]3[C@@H]2O[C@]12C(C)C)C(=O)OC4)C(=O)OCc1ccc(O[C@@H]2OC(C(=O)O)[C@@H](O)[C@H](O)C2O)c(NC(=O)CCNC(=O)CCN2C(=O)C=CC2=O)c1 (stereo partly shown) [Compound 4.5] |  | None Observed |  |  |  | No indication of drug-linker degradation |  |
| COCCOCCOCCOCCOCCOCCOCCOCCN(COC(C)Cc1ccccc1)C(=O)OCc1ccc(O[C@@H]2O[C@H](C(=O)O)[C@@H](O)[C@H](O)[C@H]2O)c(NC(C)=O)c1 (stereo partly drawn) [Compound 8.32, (2S,3S,4S,5R,6S)-6-(2-acetamido-4-(3-oxo-4-(((1-phenylpropan-2-yl)oxy)methyl)-2,7,10,13,16,19,22,25,28-nonaoxa-4-azanonacosyl)phenoxy)-3,4,5-trihydroxytetrahydro-2H-pyran-2-carboxylic acid] | 15 min | None Observed |  | no signs of degradation |  |  |  |
| CCN(COC(C)(C)Cc1ccccc1)C(=O)OCc1ccc(O[C@@H]2O[C@H](C(=O)O)[C@@H](O)[C@H](O)[C@H]2O)c(NC(C)=O)c1 [Compound 8.27, (2S,3S,4S,5R,6S)-6-(2-acetamido-4-(((ethyl(((2-methyl-1-phenylpropan-2-yl)oxy)methyl)carbamoyl)oxy)methyl)phenoxy)-3,4,5-trihydroxytetrahydro-2H-pyran-2-carboxylic acid] | 15 min | 170 h | same excellent stability | suitable stability |  |  |  |
| CCN(CSCCc1ccccc1)C(=O)OCc1ccc(O[C@@H]2O[C@H](C(=O)O)[C@@H](O)[C@H](O)[C@H]2O)c(NC(C)=O)c1 [Compound 8.29, (2S,3S,4S,5R,6S)-6-(2-acetamido-4-(((ethyl((phenethylthio)methyl)carbamoyl)oxy)methyl)phenoxy)-3,4,5-trihydroxytetrahydro-2H-pyran-2-carboxylic acid] | 40 min | None Observed |  | no sign of degradation |  |  |  |
